The nature of series [1]: Serum concentration of androgen analogs after intravenous injection, by LC/MS. The format is in vivo. The note with it: mouse, 50 ug, 50 μg intravenous, C57/B6 mice. On the procedure: FIG. 8. C57B6 mice were intravenously injected with 50 μg of IVMDHT, IVNDHT, and IVDHT. Blood samples were collected at 1, 2, 4, and 8 hours (n=4) and the serum concentrations of the compounds were analyzed by liquid chromatography mass spectrometry. With reference to 2 hours on FIG. 8, the upper line represents IVMDHT; the middle line represents IVNDHT, and the lower line represents IVDHT.
To assess the stability of different androgen analogs, 50 μg of IVDHT, IVNDHT, and IVMDHT was intravenously injected into C57/B6 mice. Blood samples were collected from the mice at 1, 2, 4, and 8 hours and analyzed by liquid chromatography/mass spectrometry (n=4).

For a further series, the target named is T1, human AR (Homo sapiens, UniProt P10275).
T1 construct: expressed in transfected cells; host or cells: CV-1
T1 sequence (P10275 1-920): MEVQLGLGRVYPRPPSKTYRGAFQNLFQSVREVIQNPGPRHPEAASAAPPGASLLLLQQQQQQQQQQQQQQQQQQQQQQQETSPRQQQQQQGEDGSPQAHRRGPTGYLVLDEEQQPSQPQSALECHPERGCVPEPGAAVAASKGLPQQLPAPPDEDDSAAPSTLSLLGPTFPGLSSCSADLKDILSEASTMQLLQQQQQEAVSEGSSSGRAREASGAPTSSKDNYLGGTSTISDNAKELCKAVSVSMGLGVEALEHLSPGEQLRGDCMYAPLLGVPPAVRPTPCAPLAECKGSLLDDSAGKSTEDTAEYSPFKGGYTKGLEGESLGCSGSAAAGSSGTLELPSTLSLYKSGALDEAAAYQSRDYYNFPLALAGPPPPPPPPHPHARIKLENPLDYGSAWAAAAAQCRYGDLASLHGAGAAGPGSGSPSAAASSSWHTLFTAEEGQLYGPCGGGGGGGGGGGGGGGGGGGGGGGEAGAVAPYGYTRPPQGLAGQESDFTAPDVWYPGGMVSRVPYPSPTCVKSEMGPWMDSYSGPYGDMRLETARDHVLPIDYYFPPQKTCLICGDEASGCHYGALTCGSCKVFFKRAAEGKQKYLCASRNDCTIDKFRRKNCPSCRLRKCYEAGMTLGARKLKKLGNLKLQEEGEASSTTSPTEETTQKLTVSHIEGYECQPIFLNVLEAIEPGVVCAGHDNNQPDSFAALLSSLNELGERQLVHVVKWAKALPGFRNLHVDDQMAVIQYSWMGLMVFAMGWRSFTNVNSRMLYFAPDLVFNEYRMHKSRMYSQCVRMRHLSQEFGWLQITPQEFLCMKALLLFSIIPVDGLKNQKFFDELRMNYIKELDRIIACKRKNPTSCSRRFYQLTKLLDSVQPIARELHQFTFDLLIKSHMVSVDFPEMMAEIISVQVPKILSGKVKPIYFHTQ
In words: Androgen-inducible (3ARE) luciferase reporter in CV-1 cells transfected with human AR expression vector. As to conditions: CV1 cells, 1 nM and 10 nM, 24 hours. The class given is cell-based. The protocol:
(§1) Cells were immunostained with an anti-AR antibody and 4′,6-diamidino-2-phenylindole (DAPI) to determine the nuclear location of the AR. FIG. 5D: CV-1 cells were transiently transfected in 48-well plates with 100 ng of luciferase reporter plasmid regulated by 3 androgen response elements (3ARE), 25 ng of pSV40 β-gal, or with or without 20 ng of the human AR expression vector. […] Then whole cell lysates were prepared to assess luciferase and β-gal activities. Transfection experiments were repeated three times in triplicate. Relative luciferase units (RLUs) were determined from three independent transfections and are presented as the mean+/−SEM.
(§2) Experiments were performed to assess the biological activity of IVMDHT. […] To determine the activity of IVMDHT in activating AR-mediated transcription, CV1 (FIG. 5D) and LNCaP cells (FIG. 5E) were transfected with an androgen-inducible luciferase reporter vector driven by AREs together either with or without the human AR expression vector.

Series [2] deals with T2, endogenous AR (Homo sapiens, UniProt P10275, T878A).
T2 construct: translocate endogenous AR into the nucleus in LNCaP cells; endogenous in cells; host or cells: LNCaP
T2 sequence (P10275 1-920 T878A): T1 sequence (P10275 1-920) with T878A
In words: AR nuclear translocation, immunostaining with anti-AR antibody and DAPI in LNCaP cells. The class given is cell-based. As to conditions: 48 hours without androgens, then 8 hours with compound. The protocol:
as §1, §2

Series [3] addresses T2, endogenous AR. The experiment in a line: Androgen-inducible (3ARE) luciferase reporter in LNCaP cells, endogenous AR transcriptional activity. The format is cell-based. The note with it: no AR expression vector, 1 nM and 10 nM, 24 hours. The protocol:
as §1, §2
(In a reporter assay the amount or activity of a reporter protein is the signal.)

Another series deals with T3, AR (Mus musculus, UniProt P19091).
T3 construct: from tissue; host or cells: living C57/B6 male mice, intact or castrated; prostate and other organs
T3 sequence (P19091 1-899): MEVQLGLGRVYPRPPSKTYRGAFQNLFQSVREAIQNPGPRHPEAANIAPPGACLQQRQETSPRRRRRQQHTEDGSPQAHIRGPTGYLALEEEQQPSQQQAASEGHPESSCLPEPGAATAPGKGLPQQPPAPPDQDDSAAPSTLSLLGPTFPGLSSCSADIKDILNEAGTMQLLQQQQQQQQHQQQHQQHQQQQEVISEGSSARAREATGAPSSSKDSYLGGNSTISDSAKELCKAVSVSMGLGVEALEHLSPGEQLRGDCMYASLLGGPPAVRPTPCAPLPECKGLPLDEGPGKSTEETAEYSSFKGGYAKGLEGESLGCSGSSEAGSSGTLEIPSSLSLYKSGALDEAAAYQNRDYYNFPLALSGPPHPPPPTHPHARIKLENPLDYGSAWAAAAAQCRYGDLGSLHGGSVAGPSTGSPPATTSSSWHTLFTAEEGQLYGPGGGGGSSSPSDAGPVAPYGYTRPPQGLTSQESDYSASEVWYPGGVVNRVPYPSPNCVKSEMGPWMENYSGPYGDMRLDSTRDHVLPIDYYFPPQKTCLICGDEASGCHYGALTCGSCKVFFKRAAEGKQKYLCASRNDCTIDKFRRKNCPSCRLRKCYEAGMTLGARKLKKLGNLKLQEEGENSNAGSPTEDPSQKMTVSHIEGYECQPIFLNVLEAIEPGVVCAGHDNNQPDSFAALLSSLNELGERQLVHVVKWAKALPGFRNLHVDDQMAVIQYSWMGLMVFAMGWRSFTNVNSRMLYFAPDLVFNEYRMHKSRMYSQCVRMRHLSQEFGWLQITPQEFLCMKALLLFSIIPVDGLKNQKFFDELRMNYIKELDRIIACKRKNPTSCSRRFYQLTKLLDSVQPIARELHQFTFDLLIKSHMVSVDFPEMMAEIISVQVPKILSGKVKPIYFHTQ
The experiment in a line: microPET imaging in intact and castrated C57/B6 male mice. The class given is in vivo. The note with it: 1.2 MBq intraperitoneal, images at 1, 2 and 6 hours. On the procedure:
FIGS. 6A-6E. The androgen analog ^124IVMDHT was intravenously injected into the tail-vein of intact (FIG. 6A) and castrated mice (FIG. 6B) and imaged at 1 hour (FIG. 6A panel 1, FIG. 6B panel 1), 2 hours (FIG. 6A panel 2, FIG. 6B panel 2) and 6 hours (FIG. 6A panel 3, FIG. 6B panel 3). […] The mice were then analyzed at 1 hour (FIG. 6D panel 1, FIG. 6E panel 1), 2 hour (FIG. 6D panel 2, FIG. 6E panel 2) and 6 hours (FIG. 6D panel 3, FIG. 6E panel 3). Positive images are shown with arrows.
In this example, microPET imaging and biodistribution assays will be performed using three available and biologically relevant animal models to fully examine the specific binding affinity of IVMDHT with the AR in vivo. […] Tissue samples were weighed and counted and the results expressed as % ID/g and total counts per organ. […] The biodistribution results will be analyzed in prostate and other non-AR enrich tissues from intact and castrated mice to determine specific uptake of ^124IVMDHT.
To determine the specific binding affinity of IVMDHT with the AR in vivo, microPET imaging and biodistribution assays were performed. The binding specificity of ^124IVMDHT in 4-month-old castrated and intact C57/B6 male mice (n=4 per group) was evaluated. […]
Using a similar experimental approach, IVNDHT was assessed in C57/B6 male mice. […] The intake rate of ^124IVNDHT was further assessed by intraperitoneal injection. […]

Numbering of substitutions follows the chain as printed.

Take `C[C@]12CCC(=O)C[C@@H]1C[C@@H](/C=C/I)[C@@H]1[C@@H]2CC[C@]2(C)[C@@H](O)CC[C@@H]12` [IVDHT, 7α-(E-2′-iodovinyl)-5α-dihydrotestosterone]: the half-life in series [1] was around 1.5 h.
Still for that read-out and setting: the same measure for `C[C@]12CC[C@@H]3C4CCC(=O)C[C@@H]4C[C@@H](/C=C/I)[C@H]3[C@@H]1CC[C@@H]2O` (stereo partly drawn) [IVNDHT, 7α-(E-2′-iodovinyl)-19-nor-5α-dihydrotestosterone]: around 1.5 h.
Turning to `C[C@]12CCC(=O)C[C@@H]1C[C@@H](/C=C/I)[C@@H]1[C@@H]2CC[C@@]2(C)[C@H]1CC[C@]2(C)O` [IVMDHT, 7α-(E-2′-iodovinyl)-17α-methyl-5α-dihydrotestosterone], the AR-mediated luciferase activity result at human AR and at endogenous AR [3] was “increase in AR-mediated luciferase activity” in each case. In addition, the “nuclear location of the AR protein” value on endogenous AR [2] is recorded as “uniform nuclear staining of the AR protein”. This compound also showed a half-life in series [1] of around 1.5 h. Besides, the “microPET signal in the vicinity of the bladder/prostate” value on AR was “low dosage and intraperitoneal injections extend the specific intake”.

The term half-life denotes how long it takes for the measured level to halve. The low end stands for rapid decline, the high end for slow decline.

(Values after patent publication US11541062B2, “Methods of treating advanced prostate cancer” (priority 2017, dated 2023).)
